The values below come from PubChem BioAssay AID651842 (Sanford-Burnham Center for Chemical Genomics, 2012).

Structures are written as SMILES. Several values for one entry are separate records, joined by “and”; a condition that tells them apart may be missing. Equal entries are not always repeated. Activity calls are given as the source filed them.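 Rule for the calls: active = IC50 of 35 µM or lower, which flags the compound as cytotoxic and nonspecific; inactive = the rest.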

In the assay the test system is Sufu-KO-LIGHT cells viability, ATP-Lite luminescence. Kind of assay: Sufu-null reporter cell viability loss – ATP luminescence, set 1, cytotoxicity control for Gli-SUFU antagonist project, SAR follow-up (AID 651842).
For orientation: IC50 means the concentration needed to halve the response being measured. `CC(C)(C)OC(=O)N1CCN(c2cc(NC(=O)c3ccccc3)ncn2)CC1`: the IC50 was 0.24 µM.

As to `O=C(Nc1cc(N2CCCCC2)ncn1)c1ccccc1Cl`, the IC50 was > 35 µM (inactive).

Turning to `O=C(Nc1cc(N2CCCCC2)ncn1)c1cccs1`, the IC50 is > 35 µM (inactive).

In the case of `CCCCNc1cc(NC(=O)c2ccccc2)ncn1`, the IC50 was > 35 µM (inactive). For `COc1ccccc1C(=O)Nc1cc(N2CCCCC2)ncn1` the value was > 35 µM (inactive). The figure for `CN(C)c1cc(NC(=O)c2ccccc2)ncn1` is > 35 µM (inactive); for `CCN(CC)c1cc(NC(=O)c2cc(OC)cc(OC)c2)ncn1` it is > 35 µM (inactive). For `O=C(Nc1cc(N2CCCC2)ncn1)c1ccccc1` the value was > 35 µM (inactive); for `CC(C)Nc1cc(NC(=O)c2ccccc2)ncn1`, > 35 µM (inactive); for `CCN(CC)c1cc(NC(=O)c2ccc(Br)o2)ncn1`, > 35 µM (inactive). `O=C(Nc1cc(NCC2CCCO2)ncn1)c1ccccc1` (centres undefined): the IC50 was > 35 µM (inactive). The figure for `COc1cc(OC)cc(C(=O)Nc2cc(Nc3cccc(Cl)c3)ncn2)c1` is > 35 µM (inactive). For the molecule `CN(C)c1cc(NC(=O)c2cccc(C#N)c2)ncn1`, the IC50 is > 35 µM (inactive). The figure for `COc1cc(OC)cc(C(=O)Nc2cc(N(C)C)ncn2)c1` is > 35 µM (inactive).

Take `CC(C)(C)Nc1cc(NC(=O)c2ccccc2)ncn1`: the IC50 was > 35 µM (inactive). For `CCN(CC)c1cc(NC(=O)c2ccccc2)ncn1` the value was > 35 µM (inactive); for `O=C(Nc1cc(N2CCCCC2)ncn1)c1ccc(Br)o1`, > 35 µM (inactive). The figure for `CN(C)c1cc(NC(=O)c2ccccc2F)ncn1` is > 35 µM (inactive); for `CCN(CC)c1cc(NC(=O)c2ccccc2F)ncn1` it is > 35 µM (inactive). The figure for `O=C(Nc1cc(N2CCCCC2)ncn1)c1cccc(F)c1` is > 35 µM (inactive).

Regarding `Cc1nc(NC(=O)c2ccccc2)cc(N2CCCCC2)n1`, the IC50 is > 35 µM (inactive). For `O=C(Nc1cc(N2CCCCCC2)ncn1)c1ccccc1` the value was > 35 µM (inactive); for `CC1CCCCN1c1cc(NC(=O)c2ccccc2)ncn1` (centres undefined), > 35 µM (inactive).

In the case of `CN1CCN(c2cc(NC(=O)c3ccccc3)ncn2)CC1`, the IC50 was > 35 µM (inactive). The figure for `O=C(Nc1cc(N2CCCC2)ncn1)c1cccc(F)c1` is > 35 µM (inactive); for `O=C(Nc1cc(N2CCCCC2)ncn1)c1cc2ccccc2s1` it is 6.97 µM; for `COc1cc(OC)cc(C(=O)Nc2cc(N3CCCC3)ncn2)c1` it is > 35 µM (inactive). The figure for `O=C(Nc1cc(N2CCCCC2)ncn1)c1ccsc1` is > 35 µM (inactive); for `O=C(Nc1cc(N2CCCCC2)ncn1)c1ccccc1` it is > 35 µM (inactive); for `CC(C)CNc1cc(NC(=O)c2cccc(F)c2)ncn1` it is > 35 µM (inactive).

As to `O=C(Nc1cc(N2CCNCC2)ncn1)c1ccccc1`, the IC50 was > 35 µM (inactive). For `CCN(CC)c1cc(NC(=O)c2cccc(F)c2)ncn1` the value was > 35 µM (inactive). For `CCC(C)Nc1cc(NC(=O)c2ccccc2)ncn1` (centres undefined) the value was > 35 µM (inactive); for `O=C(Nc1cc(N2CCOCC2)ncn1)c1ccccc1`, > 35 µM (inactive); for `COc1cc(OC)cc(C(=O)Nc2cc(N3CCCCC3)ncn2)c1`, 4.69 µM.

With `O=C(Nc1cc(N2CCCCC2)ncn1)c1ccccc1F`, the IC50 was > 35 µM (inactive). For `O=C(Nc1cc(N2CCCCC2)ncn1)c1cccc2ccccc12` the value was > 35 µM (inactive); for `O=C(Nc1cc(N2CCCCC2)ncn1)c1ccco1`, > 35 µM (inactive).

`CCN(CC)c1cc(NC(=O)c2ccccc2)nc(C)n1`: the IC50 was > 35 µM (inactive). The figure for `Cc1ccc(C(=O)Nc2cc(N3CCCCC3)ncn2)cc1` is 3.45 µM. For `N#Cc1ccc(C(=O)Nc2cc(N3CCCCC3)ncn2)cc1` the value was > 35 µM (inactive).

Regarding `COc1cccc(C(=O)Nc2cc(N3CCCCC3)ncn2)c1`, the IC50 was 2.28 µM. For `O=C(Nc1cc(N2CCCCC2)ncn1)c1ccc2ccccc2c1`, the IC50 was 2.57 µM. The figure for `Cc1nc(NC(=O)c2ccccc2)cc(N2CCCC2)n1` is > 35 µM (inactive); for `O=C(Nc1cc(N2CCCC2)ncn1)c1ccccc1F` it is > 35 µM (inactive).

Turning to `CN(C)c1cc(NC(=O)c2cccc(F)c2)ncn1`, the IC50 is > 35 µM (inactive). The figure for `O=C(Nc1cc(N2CCSCC2)ncn1)c1ccccc1` is > 35 µM (inactive); for `CC(C)CNc1cc(NC(=O)c2ccccc2)ncn1` it is > 35 µM (inactive). For `CCN(CC)c1cc(NC(=O)c2cccc(C#N)c2)ncn1` the value was > 35 µM (inactive).

Regarding `Cc1nc(NC(=O)c2ccccc2)cc(N(C)C)n1`, the IC50 was > 35 µM (inactive). For `O=C(Nc1cc(N2CCCCC2)ncn1)c1ccc(Cl)cc1`, the IC50 was 1.42 µM and 0.588 µM. The figure for `CC1CCN(c2cc(NC(=O)c3ccccc3)ncn2)CC1` is > 35 µM (inactive); for `CCCCN(C)c1cc(NC(=O)c2ccccc2)ncn1` it is 2.89 µM. For `N#Cc1cccc(C(=O)Nc2cc(N3CCCCC3)ncn2)c1` the value was > 35 µM (inactive).
